This note sets out measurements from patent US20100310660A1, “DRY POWDER MICROPARTICLES FOR PULMONARY DELIVERY” (TAIPEI MEDICAL UNIVERSITY, priority 2009, published 2010).

The assay relates to A549 cells. The assay is described as follows: Photocytotoxicity (MTT assay after LED irradiation). Type of assay: cell-based, Human. The settings on record: 0.5 μg/ml Hp, 3 hours. On the procedure: Human lung adenocarcinoma A549 cells were kept in a humidified incubator containing 5% CO2 at 37° C. A549 cells were cultured in DMEM supplemented with 10% fetal bovine serum (FBS) and 1% penicillin-streptomycin (GIBCO BRL, USA). The cells were routinely grown in tissue culture flask and harvested with a solution of 1% trypsin while in the logarithmic phase of growth. The cells were kept in the above culture conditions for experiments.
A549 cells were grown in 96-well plates at a density of 8×10^3 cells/well for 24 hours. […] The cells were incubated for 3 hours (protection from light) and washed once with 100 μl PBS/well. The no phenol red medium (100 μl/well) was added to the cells and then irradiated with various doses of light using LED (635±5 nm, 60 mW/cm^2) light source. After light irradiation, the original medium was removed and DMEM containing 10% FBS was added to each well. Twenty-four hours later, cell survival was measured using an MTT [3(4,5-dimethyl-thiazoyl-2-yl) 2,5 diphenyl-tetrazolium bromide] assay. The MTT assay was based on the activity of mitochondria dehydrogenases wherein a water-soluble tetrazolium salt was reduced to a purple insoluble formazan product. The amount of MTT formazan product was analyzed with spectrophotometer at the absorbance of 570 nm.

Structures can show the parent of a compound that is named as a salt.

`CC1=C(CCC(=O)O)c2cc3[nH]c(cc4nc(cc5[nH]c(cc1n2)c(C)c5C(C)O)C(C)=C4C(C)O)c(C)c3CCC(=O)O` (centres unmarked) [Hp, Hematoporphyrin Dihydrochloride]: the cells alive (irradiation at 4 J/cm2) was determined as 89% and the cells alive (irradiation at 12 J/cm2) is 75%.
